Experimental data published in patent US12448433B2, “Human ApoB100 epitopes, methods and uses for modulating inflammatory responses, and treating adverse cardiovascular events, disease and atherosclerosis” (LA JOLLA INSTITUTE FOR ALLERGY AND IMMUNOLOGY, priority 2015, dated 2025).

Tests used:
DRB1*11:01 = DRB1*11:01 (Homo sapiens, UniProt P01903+P01911, A100R/A169T/A87E/I96F/K41T/L162R/M171V/P40S/Q125H/Q178H/Q39Y/Q99D/R42S/S66Y/T262R/V115G/W38E); assay: Peptide binding to HLA-DR allele, competition assay
Text: (§1) Peptide binding to MHC-II requires anchor residues in certain positions and thus can be predicted using computer algorithms. Affinity can be measured experimentally using a competition assay (1). Both are excellent screening tools. However, affinity must be measured separately for each MHC-II allele. Humans express molecules encoded in four different MHC-II loci, denominated HLA-DRB1, DRB3/4/5, DP and DQ. Allelic variation is large, and most people are heterozygous at each locus, thus expressing up to 8 relevant MHC-II alleles. CD4 T cell responses strictly require that the antigenic peptide binds to the relevant MHC-II.
(§2) To identify peptides that could potentially be used in human patients, 30 peptides were screened for binding to 26 HLA alleles by competition assay.

DRB1*13:02 = DRB1*13:02 (Homo sapiens, UniProt P01903+P01911, A100E/A169T/K41T/L162R/M171V/P40S/Q125H/Q178H/Q39Y/Q99D/R42S/S66N/T262R/V115G/W38E/Y61H); assay: as above
Text: as §1, §2

HLA-DRB1*01:01 = HLA-DRB1*01:01 (Homo sapiens, UniProt P01903+P01911, A100R/D57E/F55L/F60I/F76Y/I96L/L162R/M171V/P40L/Q125E/R42F/V115G/Y59C); assay: as above
Text: as §1, §2

DRB1*09:01 = DRB1*09:01 (Homo sapiens, UniProt P01903+P01911, A100R/A103E/D57H/D86V/F55Y/F60I/F76Y/I96F/K127E/L162R/M171V/P40D/Q125H/Q99R/R33Q/R42F/S133A/S66N/T210M/V115G/W38K/Y107V/Y59G/Y89S); assay: as above
Text: as §1, §2

DPB1*14:01 = assay: Peptide binding to HLA-DP allele, competition assay; design: species or system human
Text: as §1, §2

DPB1*05:01 = assay: as above; design: species or system human
Text: as §1, §2

DQB1*06:02 = assay: Peptide binding to HLA-DQ allele, competition assay; design: species or system human
Text: as §1, §2

DQB1*05:01 = assay: as above; design: species or system human
Text: as §1, §2

DRB1*04:05 = DRB1*04:05 (Homo sapiens, UniProt P01903+P01911, A100R/A169T/D86S/F76Y/I96L/K127E/L162R/M171V/N62H/P40V/Q125Y/R42H/S133A/S149N/S66Y/V115G/V209L/W38E); assay: Peptide binding to HLA-DR allele, competition assay
Text: as §1, §2

DPB1*04:02 = assay: Peptide binding to HLA-DP allele, competition assay; design: species or system human
Text: as §1, §2

DPB1*02:01 = assay: as above; design: species or system human
Text: as §1, §2

DPB1*04:01 = molecular target: T1, DPB1*04:01 (Homo sapiens, UniProt P04440); assay: as above
T1 sequence (P04440 30-258): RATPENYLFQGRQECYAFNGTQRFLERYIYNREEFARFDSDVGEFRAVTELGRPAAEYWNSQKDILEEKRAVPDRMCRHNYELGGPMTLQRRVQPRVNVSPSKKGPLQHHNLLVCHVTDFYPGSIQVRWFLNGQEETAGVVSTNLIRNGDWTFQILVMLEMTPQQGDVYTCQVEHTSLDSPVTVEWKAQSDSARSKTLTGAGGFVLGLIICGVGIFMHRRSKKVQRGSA
T1 sequence (P20036 29-260 partner): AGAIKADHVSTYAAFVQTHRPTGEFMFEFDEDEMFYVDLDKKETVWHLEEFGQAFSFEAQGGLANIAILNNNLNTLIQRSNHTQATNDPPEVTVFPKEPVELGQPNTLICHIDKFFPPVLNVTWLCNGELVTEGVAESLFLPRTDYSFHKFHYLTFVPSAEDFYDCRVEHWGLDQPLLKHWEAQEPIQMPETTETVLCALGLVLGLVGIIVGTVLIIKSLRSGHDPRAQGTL
Text: as §1, §2

DRB5*01:01 = DRB5*01:01 (Homo sapiens, UniProt P01903+Q30154); assay: Peptide binding to HLA-DR allele, competition assay
Text: as §1, §2

DRB1*15:01 = DRB1*15:01 (Homo sapiens, UniProt P01903+P01911); assay: as above
Text: as §1, §2

DPB1*03:01 = assay: Peptide binding to HLA-DP allele, competition assay; design: species or system human
Text: as §1, §2

IC50 (DRB1*11:01) [nM] | IC50 (DRB1*13:02) [nM] | IC50 (HLA-DRB1*01:01) [nM] | IC50 (DRB1*09:01) [nM] | IC50 (DPB1*14:01) [nM] | IC50 (DPB1*05:01) [nM] | IC50 (DQB1*06:02) [nM] | IC50 (DQB1*05:01) [nM] | IC50 (DRB1*04:05) [nM] | IC50 (DPB1*04:02) [nM] | IC50 (DPB1*02:01) [nM] | IC50 (DPB1*04:01) [nM] | IC50 (DRB5*01:01) [nM] | IC50 (DRB1*15:01) [nM] | IC50 (DPB1*03:01) [nM] | SMILES
1200 | 1.1 | 7.1 | 17 | 183 | 9.8 | 245 | 2630 | – | – | – | – | – | – | – | CC(C)C[C@H](NC(=O)CNC(=O)[C@@H](N)CCCNC(=N)N)C(=O)N[C@@H](CCCCN)C(=O)N[C@@H](CC(C)C)C(=O)N[C@@H](C)C(=O)N[C@H](C(=O)N[C@@H](C)C(=O)N[C@@H](CC(C)C)C(=O)N[C@@H](CO)C(=O)N[C@@H](CC(C)C)C(=O)N[C@@H](CO)C(=O)N[C@@H](CC(N)=O)C(=O)N[C@@H](CCCCN)C(=O)N[C@@H](Cc1ccccc1)C(=O)O)[C@@H](C)O [Peptide 3563.0020]
– | – | – | 46 | 1780 | 369 | – | – | 18 | 93 | 200 | 16 | – | – | – | CC[C@H](C)[C@H](NC(=O)[C@H](C)NC(=O)[C@H](CCCCN)NC(=O)[C@H](Cc1ccccc1)NC(=O)[C@@H](NC(=O)[C@H](CCC(=O)O)NC(=O)[C@@H](N)CCC(N)=O)C(C)C)C(=O)N[C@@H](CCC(N)=O)C(=O)N[C@@H](CO)C(=O)N[C@@H](CC(C)C)C(=O)N[C@@H](CCCCN)C(=O)N[C@H](C(=O)N[C@H](C(=O)N[C@@H](CCC(=O)O)C(=O)N[C@H](C(=O)O)C(C)C)[C@@H](C)O)[C@@H](C)O [Peptide 3563.0024]
– | – | – | – | 132 | – | 66 | – | – | – | – | – | 18 | 1.1 | 90 | CC[C@H](C)[C@H](N)C(=O)N[C@@H](CCCCN)C(=O)N[C@@H](Cc1c[nH]cn1)C(=O)N[C@H](C(=O)N[C@@H](Cc1ccc(O)cc1)C(=O)N[C@@H](C)C(=O)N[C@H](C(=O)N[C@@H](CO)C(=O)N[C@@H](CO)C(=O)N[C@@H](C)C(=O)N[C@@H](C)C(=O)N[C@@H](CC(C)C)C(=O)N[C@@H](CO)C(=O)N[C@@H](C)C(=O)N[C@@H](CO)C(=O)O)[C@@H](C)CC)[C@@H](C)CC [Peptide 3563.0009]
